# In paper PMC12281424, “A Rac-specific competitive inhibitor of guanine nucleotide binding reduces metastasis in triple-negative breast cancer” (Cell Reports Medicine, 2025):
# Assays:
# TrkC(h) = TrkC(h) (Homo sapiens, UniProt Q16288); experiment: Kinase Profiler; format: biochemical
# Method: (§1) The kinase profiler was performed by the company Eurofins (Discovery, Panlab and Cerep).
# BrSK2(h) = BrSK2(h) (Homo sapiens, UniProt Q8IWQ3); experiment: Kinase Profiler; format: biochemical
# Method: (§2) Blood cell counts, kinase profiler, safety screen, bacterial cytotoxicity, Ames, micronucleus assays were performed by the company Eurofins (France). The kinase profiler was performed by the company Eurofins (Discovery, Panlab and Cerep).
# IRR(h) = IRR(h) (Homo sapiens, UniProt P14616); experiment: Kinase Profiler; format: biochemical
# Method: as §2
# NIH/3T3 cell adhesion = experiment: Cell adhesion assay (xCELLigence impedance); format: cell-based; conditions: 10^-5 M
# Method: NIH3T3cells (10000/well) were seeded in a 96 well plate microtiter xCELLigence assay plate (E-Plate) (ACEA Biosciences Inc.) and placed on the Real-time xCELLigence Cell Analyzer (Roche Applied Science) platform at 37°C to measure the “cell index” every 5 min for a period of 6 h. The cell index unit is defined as (Rn − Rb)/15. Rn is the cell electrode impedance of the well when it contains cells. Rb is the background impedance of the well with the media alone.
# Supplementary Fig. 3: Example of one pharmacophore model used for virtual screening. (a) The pharmacophore model shown was created based on RAC1 (grey) and NSC23766 (orange) interaction. […] (b) Impact of different screening molecules (10^-5 M) on NIH/3T3 cell adhesion (xCELLingence Real-time cellanalysis, Agilent), migration (CYTOO Mobility plates) and proliferation (xCELLingence Real-time cell analysis, Agilent) .The level of RAC activation is determinedby the detection of RAC-GTP (pull-down assay) in NIH/3T3 cell treated with EGF (10 ng/mL) and the differentmolecules and normalize to the level of RAC activity measuredin the presenceof the reference RAC inhibitor EHT1864.
# Supplementary Fig. 4: A41 inhibits RAC-dependent cell functions. (a) Representative records of single NIH/3T3 cell migration on micropatterned fibronectin lines (CYTOO Mobility plates) in the absence (Control)and presenceA41 at 10^-5 M (left panel) and corresponding quantification of migration speed (right panel) (scale bar: 20µm). […] (b) Typical curves showing the cell index representing the adhesion of NIH/3T3 fibroblast (xCELLingence Real-time cell analysis, Agilent) under control condition (Control) and pre-treated with 10 µM A41 or NSC23766 (left panel) and corresponding quantification of cell adhesion speed (right panel). […]
# Mer(h) = Mer(h) (Homo sapiens, UniProt Q12866); experiment: Kinase Profiler; format: biochemical
# Chain of Mer(h) (Q12866 21-999): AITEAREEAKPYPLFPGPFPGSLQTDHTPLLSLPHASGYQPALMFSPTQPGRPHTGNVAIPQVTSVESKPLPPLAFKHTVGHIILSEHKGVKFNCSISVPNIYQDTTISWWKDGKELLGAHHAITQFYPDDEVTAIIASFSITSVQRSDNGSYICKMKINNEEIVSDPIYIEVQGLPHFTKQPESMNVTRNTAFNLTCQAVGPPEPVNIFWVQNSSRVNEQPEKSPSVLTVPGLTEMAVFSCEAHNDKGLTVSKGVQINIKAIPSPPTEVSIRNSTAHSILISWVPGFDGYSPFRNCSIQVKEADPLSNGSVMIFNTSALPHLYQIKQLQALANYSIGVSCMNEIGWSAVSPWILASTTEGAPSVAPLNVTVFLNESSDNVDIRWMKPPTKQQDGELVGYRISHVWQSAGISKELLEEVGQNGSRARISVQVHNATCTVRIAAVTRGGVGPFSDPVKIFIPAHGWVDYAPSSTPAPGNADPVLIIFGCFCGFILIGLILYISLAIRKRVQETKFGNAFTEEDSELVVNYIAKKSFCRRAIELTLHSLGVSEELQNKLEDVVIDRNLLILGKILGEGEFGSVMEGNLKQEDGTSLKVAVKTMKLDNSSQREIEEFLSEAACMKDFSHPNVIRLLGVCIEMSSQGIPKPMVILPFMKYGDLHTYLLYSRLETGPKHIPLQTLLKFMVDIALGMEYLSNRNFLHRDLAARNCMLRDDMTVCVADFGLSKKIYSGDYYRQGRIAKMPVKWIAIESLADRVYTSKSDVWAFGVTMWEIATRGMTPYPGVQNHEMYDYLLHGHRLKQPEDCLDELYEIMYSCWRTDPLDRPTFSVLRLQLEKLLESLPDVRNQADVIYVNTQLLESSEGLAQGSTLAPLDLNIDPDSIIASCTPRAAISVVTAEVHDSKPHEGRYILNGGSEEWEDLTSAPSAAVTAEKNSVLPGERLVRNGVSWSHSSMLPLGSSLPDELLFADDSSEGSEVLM
# Method: as §1
# Melanocortin MC1 = Melanocortin MC1 (Homo sapiens, UniProt Q01726); experiment: Safety screen; format: binding
# Chain of Melanocortin MC1 (Q01726 whole entry): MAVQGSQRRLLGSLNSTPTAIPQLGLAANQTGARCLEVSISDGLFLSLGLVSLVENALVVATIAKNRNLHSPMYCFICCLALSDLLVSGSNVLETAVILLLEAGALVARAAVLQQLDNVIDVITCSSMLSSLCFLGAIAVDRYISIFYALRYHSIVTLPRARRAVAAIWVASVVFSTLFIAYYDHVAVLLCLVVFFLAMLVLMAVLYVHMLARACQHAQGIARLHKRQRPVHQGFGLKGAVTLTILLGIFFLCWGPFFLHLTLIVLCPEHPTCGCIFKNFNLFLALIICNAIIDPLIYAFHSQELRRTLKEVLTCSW
# Method: Blood cell counts, kinase profiler, safety screen, bacterial cytotoxicity, Ames, micronucleus assays were performed by the company Eurofins (France).
# [1] = Ames fluctuation test (7th group); format: cell-based
# Text: Data S3. Ames-fluctuation assay-A41.
# Test Concentration Count Positive Significance Fisher Exact Test
# PDGFRβ(h) = PDGFRβ(h) (Homo sapiens, UniProt P09619); experiment: Kinase Profiler; format: biochemical
# Method: as §1
# FAK(h) = FAK(h) (Homo sapiens, UniProt Q05397); experiment: Kinase Profiler; format: biochemical
# Method: as §1
# GSK3β(h) = GSK3β(h) (Homo sapiens, UniProt P49841); experiment: Kinase Profiler; format: biochemical
# Chain of GSK3β(h) (P49841 whole entry): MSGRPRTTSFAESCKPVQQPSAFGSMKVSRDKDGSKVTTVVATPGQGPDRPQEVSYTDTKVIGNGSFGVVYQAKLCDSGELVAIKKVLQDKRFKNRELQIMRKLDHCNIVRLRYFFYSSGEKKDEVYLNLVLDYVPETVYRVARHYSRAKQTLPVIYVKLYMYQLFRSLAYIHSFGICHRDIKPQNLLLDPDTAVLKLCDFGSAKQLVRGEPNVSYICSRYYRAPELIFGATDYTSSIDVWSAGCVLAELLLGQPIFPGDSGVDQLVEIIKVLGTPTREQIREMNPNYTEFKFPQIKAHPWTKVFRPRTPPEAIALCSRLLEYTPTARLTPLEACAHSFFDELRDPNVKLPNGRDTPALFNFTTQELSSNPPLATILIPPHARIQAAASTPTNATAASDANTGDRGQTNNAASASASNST
# Method: as §2
# GRK1(h) = GRK1(h) (Homo sapiens, UniProt Q15835); experiment: Kinase Profiler; format: biochemical
# Method: as §2
# CDKL2(h) = CDKL2(h) (Homo sapiens, UniProt Q92772); experiment: Kinase Profiler; format: biochemical
# Chain of CDKL2(h) (Q92772 whole entry): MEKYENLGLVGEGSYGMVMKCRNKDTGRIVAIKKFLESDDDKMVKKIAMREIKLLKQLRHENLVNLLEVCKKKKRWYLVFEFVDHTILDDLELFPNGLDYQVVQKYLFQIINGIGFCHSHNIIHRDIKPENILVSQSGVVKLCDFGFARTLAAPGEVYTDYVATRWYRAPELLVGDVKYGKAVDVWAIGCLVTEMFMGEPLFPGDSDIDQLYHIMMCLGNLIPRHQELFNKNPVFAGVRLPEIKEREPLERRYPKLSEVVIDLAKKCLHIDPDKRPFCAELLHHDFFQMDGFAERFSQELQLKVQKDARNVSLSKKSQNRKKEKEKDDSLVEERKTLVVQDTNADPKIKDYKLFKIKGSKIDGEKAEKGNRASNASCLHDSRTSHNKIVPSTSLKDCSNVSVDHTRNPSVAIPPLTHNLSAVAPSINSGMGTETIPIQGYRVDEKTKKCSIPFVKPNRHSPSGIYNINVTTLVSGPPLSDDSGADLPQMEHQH
# Method: as §1
# AMPKα2(h) = AMPKα2(h) (Homo sapiens, UniProt P54646); experiment: Kinase Profiler; format: biochemical
# Method: as §2
# Cdc7/cyclinB1(h) = Cdc7/cyclinB1(h) (Homo sapiens, UniProt O00311); experiment: Kinase Profiler; format: biochemical
# Method: as §1
# FGFR4(h) = FGFR4(h) (Homo sapiens, UniProt P22455); experiment: Kinase Profiler; format: biochemical
# Method: as §1
# CK1δ(h) = CK1δ(h) (Homo sapiens, UniProt P48730); experiment: Kinase Profiler; format: biochemical
# Method: as §1
# Axl(h) = Axl(h) (Homo sapiens, UniProt P30530); experiment: Kinase Profiler; format: biochemical
# Chain of Axl(h) (P30530 26-894): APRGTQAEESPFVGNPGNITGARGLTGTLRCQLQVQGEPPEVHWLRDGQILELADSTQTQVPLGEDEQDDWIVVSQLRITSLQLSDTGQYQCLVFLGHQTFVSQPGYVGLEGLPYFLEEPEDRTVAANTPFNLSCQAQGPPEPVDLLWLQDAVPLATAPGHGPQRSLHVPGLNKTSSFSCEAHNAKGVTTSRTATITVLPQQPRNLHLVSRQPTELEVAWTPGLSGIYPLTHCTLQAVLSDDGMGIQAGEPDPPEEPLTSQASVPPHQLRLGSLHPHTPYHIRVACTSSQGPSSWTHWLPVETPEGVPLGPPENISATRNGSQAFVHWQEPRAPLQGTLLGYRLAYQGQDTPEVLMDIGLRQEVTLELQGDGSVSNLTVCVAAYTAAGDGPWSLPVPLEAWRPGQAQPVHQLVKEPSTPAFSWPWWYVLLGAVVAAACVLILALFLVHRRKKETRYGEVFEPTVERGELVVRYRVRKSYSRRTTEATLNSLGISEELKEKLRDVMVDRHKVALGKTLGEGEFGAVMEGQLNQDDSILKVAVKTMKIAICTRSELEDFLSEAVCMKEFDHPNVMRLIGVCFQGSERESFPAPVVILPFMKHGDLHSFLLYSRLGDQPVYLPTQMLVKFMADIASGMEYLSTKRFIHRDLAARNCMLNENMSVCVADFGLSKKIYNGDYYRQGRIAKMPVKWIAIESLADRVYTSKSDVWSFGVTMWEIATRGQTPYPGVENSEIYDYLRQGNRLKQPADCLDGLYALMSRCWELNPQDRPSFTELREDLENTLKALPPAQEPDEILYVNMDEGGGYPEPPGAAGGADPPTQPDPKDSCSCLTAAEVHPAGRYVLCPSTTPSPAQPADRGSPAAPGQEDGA
# Method: as §2
# TRB2(h) = TRB2(h) (Homo sapiens, UniProt Q92519); experiment: Kinase Profiler; format: biochemical
# Method: as §1
# EphA2(h) = EphA2(h) (Homo sapiens, UniProt P29317); experiment: Kinase Profiler; format: biochemical
# Chain of EphA2(h) (P29317 24-976): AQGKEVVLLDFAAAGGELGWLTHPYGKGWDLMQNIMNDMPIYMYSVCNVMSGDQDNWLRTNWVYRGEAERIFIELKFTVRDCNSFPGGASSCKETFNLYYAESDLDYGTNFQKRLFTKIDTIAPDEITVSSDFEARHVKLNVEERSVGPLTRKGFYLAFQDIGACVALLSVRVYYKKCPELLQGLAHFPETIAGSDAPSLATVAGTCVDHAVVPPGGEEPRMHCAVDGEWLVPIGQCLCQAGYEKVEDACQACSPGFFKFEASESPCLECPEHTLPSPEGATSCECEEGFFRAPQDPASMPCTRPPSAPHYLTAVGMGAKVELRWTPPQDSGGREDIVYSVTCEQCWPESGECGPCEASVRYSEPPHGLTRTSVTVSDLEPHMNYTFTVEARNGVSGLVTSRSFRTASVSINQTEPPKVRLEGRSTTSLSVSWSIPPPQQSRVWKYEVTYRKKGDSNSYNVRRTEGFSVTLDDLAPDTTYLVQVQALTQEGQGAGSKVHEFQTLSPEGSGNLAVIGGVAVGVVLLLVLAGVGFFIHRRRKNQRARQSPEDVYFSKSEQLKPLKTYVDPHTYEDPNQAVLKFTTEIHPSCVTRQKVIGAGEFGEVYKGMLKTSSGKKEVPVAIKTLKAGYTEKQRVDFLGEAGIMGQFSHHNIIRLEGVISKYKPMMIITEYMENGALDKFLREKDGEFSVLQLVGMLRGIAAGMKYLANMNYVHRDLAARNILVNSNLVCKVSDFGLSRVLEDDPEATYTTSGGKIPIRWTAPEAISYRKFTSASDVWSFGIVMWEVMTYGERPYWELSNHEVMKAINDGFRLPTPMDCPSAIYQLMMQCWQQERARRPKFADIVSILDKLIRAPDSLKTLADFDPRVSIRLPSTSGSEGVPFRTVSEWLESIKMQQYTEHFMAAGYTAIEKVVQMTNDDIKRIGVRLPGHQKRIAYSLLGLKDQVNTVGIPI
# Method: as §2
# Chain of BrSK2(h) (Q8IWQ3 whole entry): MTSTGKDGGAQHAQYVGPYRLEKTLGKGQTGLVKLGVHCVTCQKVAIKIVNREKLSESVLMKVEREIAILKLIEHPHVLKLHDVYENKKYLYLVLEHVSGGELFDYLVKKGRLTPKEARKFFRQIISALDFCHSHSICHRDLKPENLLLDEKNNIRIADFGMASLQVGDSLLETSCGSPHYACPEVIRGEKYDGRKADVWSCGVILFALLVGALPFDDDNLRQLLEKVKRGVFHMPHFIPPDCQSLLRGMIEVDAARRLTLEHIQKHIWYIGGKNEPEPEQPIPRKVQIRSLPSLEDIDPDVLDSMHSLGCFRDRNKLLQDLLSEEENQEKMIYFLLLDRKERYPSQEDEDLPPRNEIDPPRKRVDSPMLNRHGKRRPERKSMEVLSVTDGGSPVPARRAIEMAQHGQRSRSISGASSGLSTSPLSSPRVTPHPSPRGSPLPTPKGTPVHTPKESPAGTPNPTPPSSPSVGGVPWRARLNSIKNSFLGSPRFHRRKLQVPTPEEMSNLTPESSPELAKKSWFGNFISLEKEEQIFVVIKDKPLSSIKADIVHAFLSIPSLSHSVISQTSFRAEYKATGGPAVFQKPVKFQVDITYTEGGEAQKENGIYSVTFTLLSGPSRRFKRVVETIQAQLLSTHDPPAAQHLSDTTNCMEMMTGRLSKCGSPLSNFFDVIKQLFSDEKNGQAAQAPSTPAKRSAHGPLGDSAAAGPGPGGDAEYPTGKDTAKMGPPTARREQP
smiles,measurement,setting,value
COc1ccc(OC)c(NS(=O)(=O)c2ccc(NC(=O)CCSc3ccc(C)cc3)cc2)c1 [Compound A41],Activity(%),TrkC(h),104%
same,Activity(%),BrSK2(h),118%
same,Activity(%),IRR(h),118%
same,cell adhesion,NIH/3T3 cell adhesion,efficiently inhibited both functions
same,Activity(%),Mer(h),90%
same,% inh.,Melanocortin MC1,14%
same,Count Positive (# of wells),[1]; 1.0E-04 M,1
same,Count Positive (# of wells),[1]; 1.0E-05 M,0
same,Count Positive (# of wells),[1]; 5.0E-05 M,0
same,Count Positive (# of wells),[1]; 5.0E-06 M,1
same,Activity(%),PDGFRβ(h),82%
same,Activity(%),FAK(h),111%
same,Activity(%),GSK3β(h),90%
same,Activity(%),GRK1(h),103%
same,Activity(%),CDKL2(h),103%
same,Activity(%),AMPKα2(h),111%
same,Activity(%),Cdc7/cyclinB1(h),92%
same,Activity(%),FGFR4(h),116%
same,Activity(%),CK1δ(h),96%
same,Activity(%),Axl(h),101%
same,Activity(%),TRB2(h),104%
same,Activity(%),EphA2(h),98%
